Assay results taken from patent US12257347B2, “Pharmaceutical composition comprising meta arsenite and method of manufacture” (KOMIPHARM INT[…] PTY LTD, priority 2018, dated 2025).

Experiments:
[1] = Hygroscopicity (moisture uptake) of the supplied SMA drug substance; assay type: physicochemical
Source text: (§1) Sodium meta-arsenite (“SMA”) was obtained from Sigma Aldrich Fine Chemicals. […]

[2] = Solubility of the supplied SMA drug substance; assay type: physicochemical
Source text: as §1

## O=[As][O-].[Na+] [SMA, sodium meta-arsenite]
[1]; at 75% RH
  Hygroscopicity (moisture uptake): ~40% at 75% RH
[1]; at 80% RH
  Hygroscopicity (moisture uptake): >80% at 80% RH
[1]; at 90% RH
  Hygroscopicity (moisture uptake): >130% at 90% RH
[2]
  Solubility: Approx. 950 mg/mL
